Assays:
[1] = 1-octanol-aqueous buffer distribution coefficient, log D of the compound at 0.5 mM at pH 7.4 after 2 hrs by shake flask method; assay type: physicochemical
[2] = Cmax in C57Bl/6 DIO mouse at 30 mg/kg, po; assay type: ADME, organism-based; set-up: dose 30 mg/kg, route oral; conditions: in vivo
[3] = Clearance in C57Bl/6 DIO mouse at 1 mg/kg, iv; assay type: ADME, organism-based; set-up: dose 1 mg/kg, route intravenous; conditions: in vivo
[4] = Oral bioavailability in C57Bl/6 DIO mouse at 30 mg/kg; assay type: ADME, organism-based; conditions: in vivo
[5] = Half life in C57Bl/6 DIO mouse at 1 mg/kg, iv; assay type: ADME, organism-based; set-up: dose 1 mg/kg, route intravenous; conditions: in vivo
[6] = Volume of distribution at steady state in C57Bl/6 DIO mouse at 1 mg/kg, iv; assay type: ADME, organism-based; set-up: dose 1 mg/kg, route intravenous; conditions: in vivo, read-out: Vdss
[7] = Oral bioavailability in C57Bl/6 DIO mouse at 49 mg/kg; assay type: ADME, organism-based; conditions: in vivo
[8] = Cmax in C57Bl/6 DIO mouse at 22 mg/kg, po; assay type: ADME, organism-based; set-up: dose 22 mg/kg, route oral; conditions: in vivo
[9] = Oral bioavailability in C57Bl/6 DIO mouse at 22 mg/kg; assay type: ADME, organism-based; conditions: in vivo
[10] = Stability of the compound in aqueous solution assessed as recovery at pH 1 to 10 after 2 hrs; assay type: physicochemical; conditions: read-out: Drug recovery
Plasma = experiment: Plasma concentration in C57Bl/6 DIO mouse at 50 to 100 mg/kg, po; assay type: ADME, organism-based; set-up: dose 50-100 mg/kg, route oral; conditions: in vivo
[11] = Oral bioavailability in C57Bl/6 DIO mouse at 23 mg/kg; assay type: ADME, organism-based; conditions: in vivo

SMILES: Cc1cc(/C(C[C@@H](c2ccc(-c3ccc(C(=O)O)cc3)cc2)c2ccccc2C)=N/O)ccn1
- logD at 2 h, 500 µM [1]: 2.7

SMILES: Cc1cc(/C(C[C@H](c2ccc(N3CCC(C(=O)O)CC3)cc2)c2ccccc2C)=N/O)ccn1
- Cmax [2]: 41000 ng/mL
- logD at 2 h, 500 µM [1]: 1.5
- clearance [3]: 5 mL/min/kg
- bioavailability [4]: 100%
- half-life [5]: 1.7 h
- Vd [6]: 0.4 L/kg

SMILES: Cc1cc(/C(C[C@@H](c2ccc(N3CCC(C(=O)O)CC3)cc2)c2ccccc2C)=N/O)ccn1
- logD at 2 h, 500 µM [1]: 1.6

SMILES: Cc1ccccc1[C@H](C/C(=N\O)c1ccc(=O)n(C)c1)c1ccc(-c2ccc(C(=O)O)cc2)cc1
- logD at 2 h, 500 µM [1]: 1.3
- clearance [3]: 5 mL/min/kg
- half-life [5]: 0.7 h
- bioavailability [7]: 67%
- Vd [6]: 0.5 L/kg

SMILES: Cc1ccccc1[C@@H](C/C(=N\O)c1ccc(=O)n(C)c1)c1ccc(-c2ccc(C(=O)O)cc2)cc1
- logD at 2 h, 500 µM [1]: 1.5

SMILES: Cc1ccccc1[C@H](C/C(=N\O)c1ccc(=O)n(C)c1)c1ccc(S(C)(=O)=O)cc1
- logD at 2 h, 500 µM [1]: 1.7
- Cmax [8]: 870 ng/mL
- clearance [3]: 67 mL/min/kg
- half-life [5]: 2.2 h
- bioavailability [9]: 29%
- Vd [6]: 3.3 L/kg

SMILES: Cc1ccccc1[C@@H](C/C(=N\O)c1ccc(=O)n(C)c1)c1ccc(S(C)(=O)=O)cc1
- logD at 2 h, 500 µM [1]: 1.9

SMILES: CN(C)c1ccc(C(C/C(=N\O)c2ccncc2)c2ccccc2)cc1 (stereo not given)
- logD at 2 h, 500 µM [1]: 3.4
- remaining at 2 h [10]: > 90%

SMILES: Cc1cc(/C(CC(c2ccc(Br)cc2)c2ccccc2C)=N/O)ccn1 (stereo not given)
- logD at 2 h, 500 µM [1]: > 4

SMILES: Cc1cc(/C(C[C@H](c2ccc(-c3ccc(C(=O)O)cc3)cc2)c2ccccc2C)=N/O)ccn1
- logD at 2 h, 500 µM [1]: 2.7
- Cp (Plasma): 31500 ng/mL
- clearance [3]: 15 mL/min/kg
- half-life [5]: 0.3 h
- bioavailability [11]: 80%
- Vd [6]: 0.5 L/kg
